Assay results as given in a melting point compilation (Tetko et al.; mined from patent text by program, amines drawn as free bases though some values may be those of a salt).

Structure (SMILES) | melting point
COc1ccc(C(Cc2ccc(NC(=O)OC(C)(C)C)cc2)c2ccccc2)cc1OC1CCCC1 (stereo unspecified) | 123 °C
O=C1C=C/C(=C/c2ccc(C(F)(F)F)cc2)O1 | 92 to 94 °C
O=C(C=Cc1ccccc1)NNC(=O)C=Cc1ccccc1 | 267 to 268 °C
CC(C)[C@H](NS(=O)(=O)c1ccc(-c2ccc(Br)cc2)cc1)C(=O)O | 192 to 193 °C
CCCCC(=O)Nc1cccc(C(=O)OC)c1 | 101 to 102 °C
CCOCc1nc2c(N)nc3cc(-c4cncc(CO)c4)ccc3c2n1CC(C)C | 211 to 212 °C
COc1ccc(C(=O)c2ccccc2)c(S)c1 | 74 to 76 °C
CCCc1c(OCCCCCCCC(=O)O)ccc(C(C)=O)c1O | 73 to 76 °C
CCC(=O)Oc1ccc2nc(NC(=O)Nc3ccccc3)sc2c1 | 212 to 215 °C
CC(=O)NC(=N)N(C)C1CCN(c2nc3ccccc3n2Cc2ccc(F)cc2)CC1 | 192 °C
CCC(CC)Nc1c(Br)c(CBr)nc2c1nnn2-c1c(C)cc(C)cc1C | 115 to 117 °C
COc1ccc2nc(-c3cccc(F)c3)cc(OP(=O)(O)O)c2c1OP(=O)(O)O | 120 to 122 °C
O=C(O)C=CC1=CCCC([N+](=O)[O-])C1 (stereo unspecified) | 158 to 160 °C
C[C@@H]1C(=O)N(c2ccc(C#N)c(C(F)(F)F)c2)[C@@H](C)[C@H]1O | 82 to 85 °C
Cc1cccc(Br)c1C=O | 48 to 49 °C
CN(CCN1CCNC1=C(C#N)C#N)Cc1ccc(CN2CCCCC2)o1 | 140 to 143 °C
COc1ccc(N2CCN(c3c(C)c(C)c4c(c3C)C(O)(c3ccc5ccccc5c3)C(C)(C)O4)CC2)cc1 (stereo unspecified) | 189 to 190 °C
O=C(O)c1ccc(S(=O)(=O)CCCl)cc1 | 142 to 144 °C
COCCN(CCOC)c1nc2cc(-c3ccc(OC)cc3)nnc2c2ccccc12 | 127 to 128 °C
CC(C)C1OP(N(CCCCCCN(C2CC(C)(C)NC(C)(C)C2)P2OCC(C)(C)C(C(C)C)O2)C2CC(C)(C)NC(C)(C)C2)OCC1(C)C (stereo unspecified) | 95 to 97 °C
C=CCn1c(=O)c2[nH]c(/C=C/c3cc(OC)c(OC)c(OC)c3)nc2n(CC=C)c1=O | 253 to 255 °C
Cn1c(CC(=O)O)ccc1C(=O)c1ccc(C#N)cc1 | 196 to 198 °C
Nc1sc2c(c1C(=O)c1cccc3ccccc13)CCC2 | 255 to 257 °C
O=C(O)c1cccc(C(=O)O)c1S(=O)(=O)Nc1ccc(F)cc1C(F)(F)F | 250 to 254 °C

Structure (SMILES) | melting point
Cc1ccc(Cl)cc1NC(=S)Nc1nc(C)c(C)s1 | 188 to 189 °C
O=C(N[C@H](Cc1ccccc1C(F)(F)F)[C@@H](O)c1ccc(F)cc1)C1CCCCC1 (racemic) | 216 to 217 °C
COC(=O)COc1ccc(C(=O)NC(=O)Nc2ccc(C(N)=S)cc2)cc1 | 215 to 218 °C
O=c1[nH]c(-c2ccc(CCCCN3CCN(c4nsc5ccccc45)CC3)cc2)cs1 | 140 to 145 °C
OC1CSC(Oc2cnc(Cl)c(F)c2)C(O)C1O (stereo unspecified) | 198 to 200 °C
O=C(CC(=O)Nc1ccc2c(c1)NC(=O)/C2=C\c1ccc[nH]1)Nc1ccc(F)cc1 | > 300 °C
CNC(=O)C1CN=CNC1 (stereo unspecified) | 150 to 151 °C
CC(=O)Nc1c(C(=O)c2cccc([N+](=O)[O-])c2)[nH]c2cc(Cl)ccc12 | 246 to 250 °C
CNc1cc(CC(C#N)=CNc2ccccc2)cc(N(C)C)c1Cl | 173 to 174 °C
O=C(OC(=O)c1cn(-c2ccccc2)nc1-c1ccc([N+](=O)[O-])o1)c1cn(-c2ccccc2)nc1-c1ccc([N+](=O)[O-])o1 | 262 to 264 °C
CN(C(c1ccc(F)cc1)c1ccc(Cl)cc1Cl)n1cncn1 (stereo unspecified) | 118 to 119 °C
O=C1NCCN1c1ccc(S(=O)(=O)Nc2ccc3c(c2)OCO3)cc1 | 219 to 220 °C
O=C(O)c1ccc(-c2cnc(-c3ccc(C(F)(F)F)cc3)o2)cc1 | 253 to 254 °C
O=C1NCC(c2c[nH]c3ccccc23)C1c1cn2c3c(cccc13)CCC2 (stereo unspecified) | 241 to 243 °C
COc1ccc(CNC(=O)C(C)=NNc2ccc(Cl)cc2)cc1 | 156 to 158 °C
O=[S@@]1CCC(c2ccccc2)(c2ccccc2)[C@@H]2CNC[C@@H]21 (racemic) | 192 °C
Cc1sc2c(Br)c3ccccc3c(-c3cc(C(C)C)c(OS(=O)(=O)c4ccc(C(=O)O)c(O)c4)c(C(C)C)c3)c2c1C | > 225 °C
O=C(NCCCn1ccnc1)c1ccccc1NS(=O)(=O)c1ccc(Cl)cc1 | 175 to 177 °C
O=CC=C[C@@H]1O[C@H]1C#CC#CC#Cc1ccccc1 (relative stereo) | 91 to 92.5 °C
CC(C)(COC(=O)COc1ccc(C(=O)CN2Cc3cc(C(N)=S)ccc3C2=O)cc1)NS(=O)(=O)c1cccnc1 | 197 to 198 °C
CC(C)C[C@H](NC(=O)OCc1ccccc1)C(=O)N[C@@H](Cc1ccccc1)C(=O)CS(C)=O (stereo partly specified) | 97 to 102 °C
CS(=O)c1cccc2c3c(n(Cc4ccc(Cl)cc4)c12)C(CC(=O)O)CCC3 (stereo unspecified) | 119 to 120 °C
c1ccc(-c2ncc(-c3cnc(-c4ccccn4)[nH]3)cn2)cc1 | 262 °C
O=C(O)c1cc2c(C(F)(F)F)cccc2s1 | 178 to 179 °C

Structure (SMILES) | melting point
FC(F)(F)COc1ccccc1N1CCNCC1 | 107 to 108 °C
Cn1ncc(/C=C/C(=O)Nc2ccc(CN)cc2)c1-c1ccc(F)cc1 | 201 to 202 °C
O=C1Nc2ccc(Cl)cc2C1(O)c1cccc(F)c1F (stereo unspecified) | 248 °C
Cc1nc(=O)[nH]c2c(-c3ccccc3)[nH]c(C)c12 | 290 to 294 °C
COc1nn(-c2cccc(Nc3nccs3)c2)c(=O)n(Cc2ccc(Cl)cc2)c1=O | 176 to 178 °C
O=[N+]([O-])c1ccc2sc(NCCO)nc2c1 | 183 °C
O=Cc1cc(-c2ccccc2F)n(S(=O)(=O)c2cccnc2)c1 | 106 to 108 °C
Cc1cc(S(=O)(=O)Cl)c(C)c(S(=O)(=O)Cl)c1 | 24 to 27 °C
CNc1nc(-c2ccccc2)c(-c2nc3ccccc3c(=O)n2-c2ccc(Cl)cc2)s1 | > 275 °C
CN(C(=O)OC(C)(C)C)c1ccc(C#CCCCO)cc1 | 103 to 105 °C
COC(=O)c1ccc(N)c(S(C)(=O)=O)c1 | 146 °C
Cc1cc2c(cc1O)C(C1(C3CCCc4ccccc43)CC1)N(C)CC2 (stereo unspecified) | 160 to 163 °C
CCCOc1ccc(S(=O)(=O)NCCc2c[nH]cn2)cc1-c1nc2cc(Cl)c([N+](=O)[O-])cc2c(=O)[nH]1 | 140 to 144 °C
O=c1c2c[nH]c3ccccc3c-2nn1-c1ccccc1 | 326 to 328 °C
Cn1c(=O)c(=O)[nH]c2ccc3c(c21)CCCN3 | > 285 °C
C=C(CCCO)c1ccc(C(=O)OC)cc1 | 28 to 30 °C
COc1ccc2c(c1)C(=O)C(=Cc1cccnc1)CO2 | 127 to 131 °C
O=C1OCCC12Oc1ccccc1C2=O (stereo unspecified) | 111 to 112 °C
c1ccc2nc3[nH]ncc3cc2c1 | 104 to 106 °C
CC(=O)n1c2ccccc2c2ccccc21 | 70 to 71 °C
O=c1[nH]c(NCCc2c[nH]cn2)nc2c1ncn2C1CC(O)C(CO)O1 (stereo unspecified) | 220 to 222 °C
CC12CC(=O)C3C(CCC4CC(O)CCC43C)C1CCC2C(=O)OCC#N (stereo unspecified) | 142 to 146 °C
Cc1cccc(NS(=O)(=O)c2ccc(NC3=C(Cl)C(=O)c4ccccc4C3=O)cc2)c1 | 234 to 237 °C
